In BigSolDB 2.1:

CCCN(CCC)S(=O)(=O)c1ccc(C(=O)O)cc1
solubility (mole fraction)
Details | 283.15 K | 288.15 K | 293.15 K | 298.15 K | 303.15 K | 308.15 K | 313.15 K | 318.15 K | 323.15 K
in MTBE | 0.00461 | 0.00531 | 0.00665 | 0.00801 | 0.00953 | 0.0111 | 0.0129 | 0.0156 | 0.0185
in acetone | 0.013 | 0.0148 | 0.0176 | 0.0201 | 0.0234 | 0.0268 | 0.0312 | 0.035 | 0.0409
in ethanol | 0.00506 | 0.00615 | 0.00797 | 0.00961 | 0.0117 | 0.015 | 0.0191 | 0.023 | 0.0279
in ethyl acetate | 0.00382 | 0.00459 | 0.00548 | 0.00659 | 0.00821 | 0.00992 | 0.0118 | 0.0138 | 0.0164
in isobutanol | 0.00363 | 0.00453 | 0.00573 | 0.00716 | 0.00904 | 0.0108 | 0.013 | 0.0158 | 0.0199
in isopropanol | 0.00627 | 0.00759 | 0.0089 | 0.0106 | 0.0122 | 0.015 | 0.018 | 0.021 | 0.0258
in methanol | 0.00365 | 0.00485 | 0.00609 | 0.00804 | 0.0105 | 0.0132 | 0.0166 | 0.0202 | 0.0248
in methyl acetate | 0.00449 | 0.00544 | 0.00656 | 0.00794 | 0.00945 | 0.0112 | 0.0129 | 0.0152 | 0.0179
in n-butanol | 0.00744 | 0.0089 | 0.0109 | 0.0131 | 0.0158 | 0.0186 | 0.022 | 0.026 | 0.0303
in n-butyl acetate | 0.00308 | 0.0038 | 0.00474 | 0.00562 | 0.00653 | 0.00773 | 0.00972 | 0.0118 | 0.014
in n-pentanol | 0.00879 | 0.0103 | 0.0123 | 0.0146 | 0.0171 | 0.0194 | 0.0228 | 0.0264 | 0.031
in n-propanol | 0.00544 | 0.00656 | 0.00841 | 0.0108 | 0.0135 | 0.0163 | 0.0207 | 0.0246 | 0.0289
